Laboratory results as given in US9745291B2, “PRMT5 inhibitors containing a dihydro- or tetrahydroisoquinoline and uses thereof” (Epizyme, Inc., priority 2012, dated 2017).
Where two headings read alike, the source gives them in different places.

Columns and labels:
Z-138 cell line = assay: Z-138 Proliferation Assay (Cell Titer Glo, 5 days); assay type: cell-based; conditions: Z-138 cells
Outline: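 Z-138 cells at 10,000 cells/ml in RPMI 1640 with 10% heat-inactivated FBS treated with nine-point 3-fold dilutions, top final concentration 20 μM, 0.2% DMSO, for 5 days at 37° C, 5% CO2. Viability by Cell Titer Glo ATP luminescence; 50% inhibition concentration from 4-parameter fit.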

[1] = tested on: symmetric di-methyl arginine in Z-138 cells; assay: Z-138 Methylation Assay (In Cell Western for symmetric di-methyl arginine and DNA content); assay type: cell-based; conditions: read-out: ICW EC50
Text: [formula] Where top and bottom are the normally allowed to float, but may be fixed at 100 or 0 respectively in a 3-parameter fit. The Hill Coefficient normally allowed to float but may also be fixed at 1 in a 3-parameter fit. Y is the % inhibition and X is the compound concentration. Z-138 Methylation Assay
Z-138 suspension cells were purchased from ATCC (American Type Culture Collection, Manassas, Va.). RPMI/Glutamax medium, penicillin-streptomycin, heat inactivated fetal bovine serum, and D-PBS were purchased from Life Technologies, Grand Island, N.Y., USA. Odyssey blocking buffer, 800CW goat anti-rabbit IgG (H+L) antibody, and Licor Odyssey infrared scanner were purchased from Licor Biosciences, Lincoln, Nebr., USA. Symmetric di-methyl arginine antibody was purchased from EMD Millipore, Billerica, Mass., USA. 16% Paraformaldehyde was purchased from Electron Microscopy Sciences, Hatfield, Pa., USA.
Z-138 suspension cells were maintained in growth medium (RPMI 1640 supplemented with 10% v/v heat inactivated fetal bovine serum and 100 units/mL penicillin-streptomycin) and cultured at 37° C. under 5% CO2.
Cell Treatment, in Cell Western (ICW) for Detection of Symmetric Di-Methyl Arginine and DNA Content.
Z-138 cells were seeded in assay medium at a concentration of 50,000 cells per mL to a 384-well cell culture plate with 50 μL per well. Compound (100 nL) from 384 well source plates was added directly to 384 well cell plate. Plates were incubated at 37° C., 5% CO2 for 96 hours. After four days of incubation, 40 μL of cells from incubated plates were added to poly-D-lysine coated 384 well culture plates (BD Biosciences 356697). Plates were incubated at room temperature for 30 minutes then incubated at 37° C., 5% CO2 for 5 hours. After the incubation, 40 μL per well of 8% paraformaldehyde in PBS (16% paraformaldahyde was diluted to 8% in PBS) was added to each plate and incubated for 30 minutes. Plates were transferred to a Biotek 405 plate washer and washed 5 times with 100 μL per well of wash buffer (1×PBS with 0.1% Triton X-100 (v/v)). Next 30 μL per well of Odyssey blocking buffer were added to each plate and incubated 1 hour at room temperature. Blocking buffer was removed and 20 μL per well of primary antibody was added (symmetric di-methyl arginine diluted 1:100 in Odyssey buffer with 0.1% Tween 20 (v/v)) and plates were incubated overnight (16 hours) at 4° C. Plates were washed 5 times with 100 μL per well of wash buffer. Next 20 μL per well of secondary antibody was added (1:200 800CW goat anti-rabbit IgG (H+L) antibody, 1:1000 DRAQ5 (Biostatus limited) in Odyssey buffer with 0.1% Tween 20 (v/v)) and incubated for 1 hour at room temperature. The plates were washed 5 times with 100 μL per well wash buffer then 1 time with 100 μL per well of water. Plates were allowed to dry at room temperature then imaged on the Licor Odyssey machine which measures integrated intensity at 700 nm and 800 nm wavelengths. Both 700 and 800 channels were scanned.
First, the ratio for each well was determined by:
Each plate included fourteen control wells of DMSO only treatment (minimum inhibition) as well as fourteen control wells for maximum inhibition treated with 3 μM of a reference compound (Background wells). The average of the ratio values for each control type was calculated and used to determine the percent inhibition for each test well in the plate. Reference compound was serially diluted three-fold in DMSO for a total of nine test concentrations, beginning at 3 μM. Percent inhibition was determined and IC50 curves were generated using triplicate wells per concentration of compound. […]

PRMT5/MEP50 = PRMT5/MEP50 (Homo sapiens (Human), UniProt O14744); assay: PRMT5 Biochemical Assay (PRMT5/MEP50 enzyme assay on peptide substrate, 3H-SAM Flashplate); conditions: PRMT5 biochemical assay; read-out: Biochemical IC50
[2] = Homo sapiens, Z-138, Z-138 cells

Sequence of PRMT5/MEP50 (O14744 other isoform, or with tags, fused parts or gaps): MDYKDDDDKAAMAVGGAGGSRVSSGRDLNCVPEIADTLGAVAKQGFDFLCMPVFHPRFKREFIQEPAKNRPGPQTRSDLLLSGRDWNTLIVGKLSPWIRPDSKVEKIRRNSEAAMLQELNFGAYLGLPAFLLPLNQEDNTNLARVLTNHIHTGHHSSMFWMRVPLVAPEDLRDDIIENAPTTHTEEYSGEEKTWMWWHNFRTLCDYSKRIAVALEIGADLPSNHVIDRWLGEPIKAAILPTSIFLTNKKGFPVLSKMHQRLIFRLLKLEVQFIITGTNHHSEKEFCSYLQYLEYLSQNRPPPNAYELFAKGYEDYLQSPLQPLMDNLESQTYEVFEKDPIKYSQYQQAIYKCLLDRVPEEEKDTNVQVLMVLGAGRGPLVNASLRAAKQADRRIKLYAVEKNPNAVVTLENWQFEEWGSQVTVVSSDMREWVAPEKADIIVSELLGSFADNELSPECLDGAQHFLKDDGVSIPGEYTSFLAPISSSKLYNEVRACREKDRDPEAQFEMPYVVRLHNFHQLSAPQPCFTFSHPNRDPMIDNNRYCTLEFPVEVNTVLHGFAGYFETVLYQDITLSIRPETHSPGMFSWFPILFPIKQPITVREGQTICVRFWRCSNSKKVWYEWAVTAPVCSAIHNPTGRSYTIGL
Sequence of PRMT5/MEP50 (Q9BQA1 other isoform, or with tags, fused parts or gaps partner): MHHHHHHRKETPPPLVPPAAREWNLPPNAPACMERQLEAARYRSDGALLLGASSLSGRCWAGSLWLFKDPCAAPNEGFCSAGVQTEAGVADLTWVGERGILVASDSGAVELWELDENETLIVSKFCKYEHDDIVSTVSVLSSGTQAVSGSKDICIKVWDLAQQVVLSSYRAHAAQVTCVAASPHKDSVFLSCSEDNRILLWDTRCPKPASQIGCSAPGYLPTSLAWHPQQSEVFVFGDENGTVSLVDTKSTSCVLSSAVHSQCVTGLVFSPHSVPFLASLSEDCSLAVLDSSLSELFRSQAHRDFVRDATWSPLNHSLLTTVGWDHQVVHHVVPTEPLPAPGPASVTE

| Compound | EC50 (Z-138 cell line; Homo sapiens, Z-138, 120 h) | EC50 [1, 2] | IC50 (PRMT5/MEP50) | EC50 (Z-138 cell line) | EC50 ([1]; Z-138 cells) |
| --- | --- | --- | --- | --- | --- |
| CN1CC[C@H](CN(C)S(=O)(=O)c2ccccc2OCC(=O)NC[C@@H](O)CN2CCc3ccccc3C2)C1 [Compound 274] | 0.101 to 1 µM | < 0.1 µM | < 0.1 µM | – | – |
| CC(C)N1CCCC(c2c(NS(C)(=O)=O)cccc2OCC(=O)NC[C@@H](O)CN2CCc3ccccc3C2)C1 (stereo partly drawn) [Compound 266] | > 20 µM | > 1 µM | 0.101 to 1 µM | – | – |
| O=C(COc1ccccc1S(=O)(=O)N1CCNC(CO)C1)NC[C@@H](O)CN1CCc2ccccc2C1 (stereo partly drawn) [Compound 217] | > 20 µM | 0.101 to 1 µM | 0.101 to 1 µM | – | – |
| CNC1CN(S(=O)(=O)c2ccccc2OCC(=O)NC[C@@H](O)CN2CCc3ccccc3C2)CC1O (stereo partly drawn) [Compound 246] | > 20 µM | 0.101 to 1 µM | < 0.1 µM | – | – |
| CN(CC1CCNC1)S(=O)(=O)c1ccccc1OCC(=O)NC[C@@H](O)CN1CCc2ccccc2C1 (stereo partly drawn) [Compound 219] | – | < 0.1 µM | < 0.1 µM | 0.101 to 1 µM | – |
| CC1CN(S(=O)(=O)c2ccccc2OCC(=O)NC[C@@H](O)CN2CCc3ccccc3C2)CCN1 (stereo partly drawn) [Compound 210] | 10 to 50 µM | 0.101 to 1 µM | 0.101 to 1 µM | – | – |
| Cn1ccnc1CCNC(=O)c1cccc(OCC(=O)NC[C@@H](O)CN2CCc3ccccc3C2)c1 [Compound 245] | > 20 µM | > 1 µM | 0.101 to 1 µM | – | – |
| O=C(CCc1cn2ccccc2n1)NC[C@H](O)CN1CCc2ccccc2C1 [Compound 229] | 10 to 50 µM | 0.101 to 1 µM | 0.101 to 1 µM | – | – |
| CN1CCN(c2cccc(OCC(=O)NC[C@@H](O)CN3CCc4ccccc4C3)c2S(=O)(=O)N(C)C)CC1 [Compound 275] | < 0.1 µM | < 0.1 µM | < 0.1 µM | – | – |
| O=C(COc1ccccc1[C@H]1CCCNC1)NC[C@@H](O)CN1CCc2ccccc2C1 [Compound 263] | 10 to 50 µM | 0.101 to 1 µM | 0.101 to 1 µM | – | – |
| O=C(CCc1nc2c(Cl)cccc2[nH]1)NC[C@H](O)CN1CCc2ccccc2C1 [Compound 227] | 0.101 to 1 µM | < 0.1 µM | < 0.1 µM | – | – |
| CN(CC1CCNC1)S(=O)(=O)c1ccccc1OCC(=O)NC[C@@H](O)CN1CCc2ccccc2C1 (stereo partly drawn) [Compound 220] | – | – | < 0.1 µM | 10 to 50 µM | 0.101 to 1 µM |
| CN(C)C1CCN(S(=O)(=O)c2ccccc2OCC(=O)NC[C@@H](O)CN2CCc3ccccc3C2)C1 (stereo partly drawn) [Compound 273] | 10 to 50 µM | 0.101 to 1 µM | < 0.1 µM | – | – |
| CN1CC(CN(C)S(=O)(=O)c2ccccc2OCC(=O)NC[C@@H](O)CN2CCc3ccccc3C2)C1 [Compound 257] | 0.101 to 1 µM | < 0.1 µM | < 0.1 µM | – | – |
| CC1CN(S(=O)(=O)c2ccccc2OCC(=O)NC[C@@H](O)CN2CCc3ccccc3C2)CCN1C (stereo partly drawn) [Compound 211] | > 20 µM | > 1 µM | 1 to 10 µM | – | – |
| O=C(COc1ccccc1[C@@H]1CCCCN1)NC[C@@H](O)CN1CCc2ccccc2C1 [Compound 236] | 10 to 50 µM | > 1 µM | 0.101 to 1 µM | – | – |
| CN(CCN1CCCCC1)S(=O)(=O)c1ccccc1OCC(=O)NC[C@@H](O)CN1CCc2ccccc2C1 [Compound 214] | 0.101 to 1 µM | < 0.1 µM | < 0.1 µM | – | – |
| CCN1CCN(c2cccc(OCC(=O)NC[C@@H](O)CN3CCc4ccccc4C3)c2S(=O)(=O)N(C)C)CC1 [Compound 277] | < 0.1 µM | < 0.1 µM | < 0.1 µM | – | – |
| CC1CN(c2cccc(OCC(=O)NC[C@@H](O)CN3CCc4ccccc4C3)c2S(=O)(=O)N(C)C)CCN1 (stereo partly drawn) [Compound 276] | < 0.1 µM | < 0.1 µM | < 0.1 µM | – | – |
| CS(=O)(=O)Nc1cccc(OCC(=O)NC[C@@H](O)CN2CCc3ccccc3C2)c1C1CCCNC1 (stereo partly drawn) [Compound 265] | > 20 µM | > 1 µM | 0.101 to 1 µM | – | – |
| O=C(COc1ccccc1[C@H]1CCCNC1)NC[C@H](O)CN1CCc2ccccc2C1 [Compound 261] | 1 to 10 µM | 0.101 to 1 µM | < 0.1 µM | – | – |
| O=C(CCc1nc2cc(Cl)ccc2[nH]1)NC[C@@H](O)CN1CCc2ccccc2C1 [Compound 208] | 10 to 50 µM | 0.101 to 1 µM | 0.101 to 1 µM | – | – |
| CC1CN(C)CCN1S(=O)(=O)c1ccccc1OCC(=O)NC[C@@H](O)CN1CCc2ccccc2C1 (stereo partly drawn) [Compound 203] | > 20 µM | 0.101 to 1 µM | 0.101 to 1 µM | – | – |
| COc1ccc2[nH]c(CCC(=O)NC[C@H](O)CN3CCc4ccccc4C3)nc2c1 [Compound 249] | 1 to 10 µM | < 0.1 µM | < 0.1 µM | – | – |
